Tests used:
[1] = tested on: colony forming leukemia progenitors; assay: Acute myeloid leukemia colony forming unit (AML-CFU) assay; format: cell-based, human
Method: For the AML-colony forming unit (CFU) assay, 0.9% methylcellulose semi-solid culture was used, containing 15% fetal calf serum (FCS), 15% pretested human plasma, 50 μM β mercaptoethanol, and cytokines at concentrations of 100 ng/mL stem cell factor, 100 ng/mL Flt-3 ligand, 20 ng/mL IL-6, 20 ng/mL GM-CSF, 20 ng/mL IL-3, and 3 U/mL of erythropoietin (Amgen, USA).
Cell Culture: Acute myeloid leukemia cells were plated in 0.9% methylcellulose containing 15% FCS, 15% pretested human plasma, 50 μM β-mercaptoethanol, and cytokines at concentrations of 100 ng/mL stem cell factor, 100 ng/mL Flt-3 ligand, 20 ng/mL IL-6, 20 ng/mL GM-CSF, 20 ng/mL IL-3 and 3 U/mL of erythropoietin (Amgen, USA). Acute myeloid leukemia cells were cultured with DMSO or Compound D (prepared as described below) during suspension and CFU assays.
Assay Procedure: After the AML cultures were incubated with DMSO or Compound D for 12 to 14 days at 37° C., plates were assigned scores for the presence of AML-CFU (CFU defined as >50 cells).
Colony assays were performed in semisolid culture supplemented with growth factors, in the presence of Compound D, or DMSO for control. Colonies were counted at Day 14.

[2] = tested on: primary acute myeloid leukemia blasts; assay: In vitro apoptosis (Annexin V) and cell count of primary AML blasts; format: cell-based, human
Method: Annexin V-PE apoptosis detection kit (BD Pharmingen, BD Bioscience, USA) was used to assess apoptosis.
Cell Culture: Materials used for in vitro assays of AML cells included X-VIVO 10 medium supplemented with 15% BIT, and growth factors including 100 ng/mL of stem cell factor, 20 ng/mL of IL-6, 20 ng/mL of G-CSF, 20 ng/mL of IL-3, 100 ng/mL of Flt 3 ligand (each provided by Amgen, USA), 20 ng/mL of GM-CSF (R&D Systems, USA), and 50 ng/mL of thrombopoietin (Kirin Brewery, Japan).
Assay Procedure: After 4 and 24 hours of in vitro culture with DMSO or Compound D, cells were harvested for GSPT1 expression and apoptosis. Levels of GSPT1 were analyzed by flow cytometry using median fluorescence intensity (MFI) and normalized against DMSO controls. Apoptosis was also analyzed by flow cytometry and measured as percentage of cells which were positive for cleaved caspase 3/7.
Viably frozen primary leukemia cells were thawed and plated in suspension culture in the Iscove's Modified Dulbecco's Medium plus 15% BIT Serum Substitute (Stem Cell Technology, Canada), supplemented with multiple human growth factors. Compound D was added to the culture at indicated concentrations.
For GSPT1 expression, intracellular flow cytometry (FACS) was performed at 24 hours in culture by staining cells with GSPT1 conjugated with Alexa Fluor 647. For apoptosis, cells were harvested at 24 hours in culture and stained with Annexin V-PE and 7-aminoactinomycin D (7AAD) (BD Biosciences, USA).

For `O=C1CCC(N2Cc3cc(CNC(=O)C(F)(F)c4ccc(Cl)cc4)ccc3C2=O)C(=O)N1` (stereo not drawn) [Compound D, 2-(4-chlorophenyl)-N-((2-(2,6-dioxopiperidin-3-yl)-1-oxoisoindolin-5-yl)methyl)-2,2-difluoroacetamide], the “colony formation, high vs low LSC17 score samples” value ([1]; 3 high and 3 low LSC17 samples) was “reduced colony formation of the samples with high LSC17 scores more than the samples with low LSC17 samples”, the colony formation ([1]; 7 samples that formed colonies, increasing concentration) was “all 7 samples had reduced colony formation” and the “colony forming leukemia progenitors” value ([1]; Section 6.3 samples) was “inhibited colony forming leukemia progenitors”. The apoptosis ([2]; 4 hours) was “not observed”, the “apoptosis, high vs low LSC17 score samples” value ([2]; 24 hours) was “induced apoptosis at higher levels in samples with high LSC17 scores” and the “induction of apoptosis, number of samples” value ([2]; 24 hours, concentration-dependent) was “observed in 3 of the 10 samples tested”. The live cells ([2]; Section 6.3 samples) was “reduction of live cells”, the apoptosis ([2]; Section 6.3 samples, 24 hours) was “Increased apoptosis” and the cell numbers ([2]; with increased concentration, 24 hours) was “reduced cell numbers for most samples”.

Source: US20220378773A1, “METHODS FOR TREATING LEUKEMIA AND USE OF A LEUKEMIC STEM CELL SIGNATURE TO PREDICT CLINICAL SENSITIVITY TO THERAPIES” (CELGENE CORPORATION, priority 2019, published 2022)
